Laboratory results taken from patent publication US10087188B2, “Benzamide imidazopyrazine Btk inhibitors” (MERCK SHARP & DOHME CORP., priority 2014, dated 2018).
pIC50: −log10 of the molar value. Where two headings read alike, the source gives them in different places.

Assays:
[1] = biological target: BTK enzyme (recombinant full-length BTK, hBTK) (Homo sapiens (Human), UniProt Q06187); assay: Btk enzyme activity assay, LANCE TR-FRET; type: biochemical; settings: 50 pM hBTK, 2 μM biotin-A5-peptide, 25 μM ATP; 60 minute compound & enzyme incubation; read-out: BTK binding IC50
Description: Btk Enzyme Activity Assay Methods
BTK enzymatic activity was determined with the LANCE (Lanthanide Chelate Excite) TR-FRET (Time-resolved fluorescence resonance energy transfer) assay. […] After 60 minutes incubation with detection reagents, reaction plates were read on a PerkinElmer EnVision plate reader using standard TR-FRET protocol.

HeLa cells = assay: [3H] Adenosine uptake assay; type: cell-based; settings: accumulation of tritiated adenosine into HeLa cells, compound concentration range 10 μM to 0.032 nM, read-out: ADU inhibition IC50 (adenosine uptake inhibition potency)
Summary of the method: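 Accumulation of tritiated adenosine in adherent HeLa cells, detected by scintillant-plate coincidence counting, gives IC50 via 4-parameter robust fit. Compound (constant 0.25% DMSO) applied 30 min ahead, then 60 min radiolabel exposure (added from 500 nM solution), ambient conditions, HBSS with 5% FBS.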

BTK enzyme (recombinant full-length BTK, hBTK), sequence (Q06187 whole entry): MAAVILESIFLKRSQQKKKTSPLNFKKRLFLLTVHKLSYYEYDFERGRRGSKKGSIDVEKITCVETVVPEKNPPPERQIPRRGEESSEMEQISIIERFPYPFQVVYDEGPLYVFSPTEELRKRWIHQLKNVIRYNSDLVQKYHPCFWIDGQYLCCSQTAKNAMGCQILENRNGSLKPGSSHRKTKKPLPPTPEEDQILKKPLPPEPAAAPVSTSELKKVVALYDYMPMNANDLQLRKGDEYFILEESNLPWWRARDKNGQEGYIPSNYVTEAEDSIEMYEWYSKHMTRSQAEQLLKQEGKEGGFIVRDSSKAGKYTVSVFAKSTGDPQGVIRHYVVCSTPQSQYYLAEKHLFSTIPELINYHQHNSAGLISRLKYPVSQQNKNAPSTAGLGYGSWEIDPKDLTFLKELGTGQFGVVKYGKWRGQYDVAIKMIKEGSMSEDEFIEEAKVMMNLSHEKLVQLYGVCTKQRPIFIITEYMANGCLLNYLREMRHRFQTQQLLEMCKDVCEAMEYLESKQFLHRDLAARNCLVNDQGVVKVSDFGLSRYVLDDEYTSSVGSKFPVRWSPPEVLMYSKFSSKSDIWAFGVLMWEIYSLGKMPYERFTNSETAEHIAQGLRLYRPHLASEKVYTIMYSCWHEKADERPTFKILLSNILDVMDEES

Compound | pIC50 [1] | pIC50 (HeLa cells; Homo sapiens, HeLa) | pIC50 (HeLa cells)
CCOc1cc(C(=O)Nc2cc(C(F)(F)F)ccn2)cc(F)c1-c1nc([C@@H]2CC[C@](C)(C(=O)O)C2(C)C)n2c(F)cnc(N)c12 [Example 118, (1S,3R)-3-[8-amino-1-(2-ethoxy-6-fluoro-4-{[4-(trifluoromethyl)pyridin-2-yl]carbamoyl}phenyl)-5-fluoroimidazo[1,5-a]pyrazin-3-yl]-1,2,2-trimethylcyclopentane carboxylic acid] | 8.89 | 5.00 | –
CCOc1cc(C(=O)Nc2cc(C(F)(F)F)ccn2)cc(F)c1-c1nc([C@]2(C)CC[C@@](C)(C(=O)O)CC2)n2ccnc(N)c12 [Example 119, trans-4-[8-amino-1-(2-ethoxy-6-fluoro-4-{[4-(trifluoromethyl)pyridin-2-yl]carbamoyl}phenyl)imidazo[1,5-a]pyrazin-3-yl]-1,4-dimethylcyclohexane-carboxylic acid] | 9.02 | 5.00 | –
CCOc1cc(C(=O)Nc2cc(C(F)(F)F)ccn2)c(F)cc1-c1nc(C2(C)CCC(C)(C(=O)O)CC2)n2ccnc(N)c12 (centres unmarked) [Example 120, 4-[8-amino-1-(2-ethoxy-5-fluoro-4-{[4-(trifluoromethyl)pyridin-2-yl]carbamoyl}phenyl)imidazo[1,5-a]pyrazin-3-yl]-1,4-dimethylcyclohexane-carboxylic acid] | 8.40 | 5.00 | –
CCOc1cc(C(=O)Nc2cc(C3CC3)ccn2)cc(F)c1-c1nc([C@@H]2CC[C@](C)(C(=O)O)C2(C)C)n2ccnc(N)c12 [Example 121, (1S,3R)-3-(8-amino-1-{4-[(4-cyclopropylpyridin-2-yl)carbamoyl]-2-ethoxy-6-fluorophenyl}imidazo [1,5-a]pyrazin-3-yl)-1,2,2-trimethylcyclopentane carboxylic acid] | 9.43 | 5.14 | –
COc1cc(C(=O)Nc2cc(C(F)(F)F)ccn2)cc(F)c1-c1nc(C23CCC(C(=O)O)(CC2)CC3)n2c(F)cnc(N)c12 [Example 122, 4-[8-amino-5-fluoro-1-(2-fluoro-6-methoxy-4-{[4-(trifluoromethyl)pyridin-2-yl]carbamoyl}phenyl)imidazo[1,5-a]pyrazin-3-yl]bicyclo[2.2.2] octane-1-carboxylic acid] | 9.04 | 5.00 | –
CCOc1cc(C(=O)Nc2cc(C3CC3)ccn2)cc(F)c1-c1nc([C@@]2(C)CC[C@](C)(C(=O)O)C2)n2ccnc(N)c12 [Example 123, (1S,3S)-3-(8-amino-1-{4-[(4-cyclopropylpyridin-2-yl)carbamoyl]-2-ethoxy-6-fluorophenyl}imidazo [1,5-a]pyrazin-3-yl)-1,3-dimethylcyclopentane carboxylic acid] | 9.24 | 5.00 | –
CCOc1cc(C(=O)Nc2cc(C(F)(F)F)ccn2)cc(F)c1-c1nc([C@@]2(C)CC[C@](C)(C(=O)O)C2)n2ccnc(N)c12 [Example 126, (1S,3S)-3-[8-amino-1-(2-ethoxy-6-fluoro-4-{[4-(trifluoromethyl)pyridin-2-yl]carbamoyl}phenyl)imidazo[1,5-a]pyrazin-3-yl]-1,3-dimethylcyclopentane carboxylic acid] | 9.33 | 5.00 | –
COc1cc(C(=O)Nc2cc(C(F)(F)F)ccn2)cc(F)c1-c1nc(C2(C)CCC(C)(C(=O)O)CC2)n2ccnc(N)c12 (centres unmarked) [Example 127, 4-[8-amino-1-(2-fluoro-6-methoxy-4-{[4-(trifluoromethyl)pyridin-2-yl]carbamoyl}phenyl)imidazo[1,5-a]pyrazin-3-yl]-1,4-dimethylcyclohexane-carboxylic acid] | 8.89 | 5.00 | –
CCOc1cc(C(=O)Nc2cc(C(F)(F)F)ccn2)c(F)cc1-c1nc([C@@]2(C)CC[C@](C)(C(=O)O)C2)n2ccnc(N)c12 [Example 128, (1S,3S)-3-[8-amino-1-(2-ethoxy-5-fluoro-4-{[4-(trifluoromethyl)pyridin-2-yl]carbamoyl}phenyl)imidazo[1,5-a]pyrazin-3-yl]-1,3-dimethylcyclopentane carboxylic acid] | 8.80 | 5.03 | –
CC1(C)[C@H](c2nc(-c3ccc(C(=O)Nc4cc(C(F)(F)F)ccn4)cc3Cl)c3c(N)nccn23)CC[C@]1(C)C(=O)O [Example 129, (1S,3R)-3-[8-amino-1-(2-chloro-4-{[4-(trifluoromethyl)pyridin-2-yl]carbamoyl}phenyl)imidazo[1,5-a]pyrazin-3-yl]-1,2,2-trimethylcyclopentane carboxylic acid] | 9.23 | 5.28 | –
CCOc1cc(C(=O)Nc2cc(C3CC3)ccn2)cc(F)c1-c1nc(C2(C)CCC(C)(C(=O)O)CC2)n2ccnc(N)c12 (centres unmarked) [Example 131, 4-(8-amino-1-{4-[(4-cyclopropylpyridin-2-yl)carbamoyl]-2-ethoxy-6-fluorophenyl}imidazo [1,5-a]pyrazin-3-yl)-1,4-dimethylcyclohexane-carboxylic acid] | 9.12 | 5.00 | –
C[C@@]1(C(=O)O)CC[C@@](C)(c2nc(-c3ccc(C(=O)Nc4cc(C(F)(F)F)ccn4)cc3Cl)c3c(N)nccn23)C1 [Example 132, (1R,3R)-3-[8-amino-1-(2-chloro-4-{[4-(trifluoromethyl)pyridin-2-yl]carbamoyl}phenyl)imidazo[1,5-a]pyrazin-3-yl]-1,3-dimethylcyclopentane carboxylic acid] | 9.60 | 5.50 | –
CC1(C(=O)O)CCC(C)(c2nc(-c3ccc(C(=O)Nc4cc(C(F)(F)F)ccn4)cc3Cl)c3c(N)nccn23)CC1 (centres unmarked) [Example 133, 4-[8-amino-1-(2-chloro-4-{[4-(trifluoromethyl)pyridin-2-yl]carbamoyl}phenyl)imidazo[1,5-a]pyrazin-3-yl]-1,4-dimethylcyclohexane-carboxylic acid] | 9.00 | 5.28 | –
CC1(C(=O)O)CCC(C)(c2nc(-c3ccc(C(=O)Nc4cc(C(F)(F)F)ccn4)cc3F)c3c(N)nccn23)CC1 (centres unmarked) [Example 134, 4-[8-amino-1-(2-fluoro-4-{[4-(trifluoromethyl)pyridin-2-yl]carbamoyl}phenyl)imidazo[1,5-a]pyrazin-3-yl]-1,4-dimethylcyclohexane-carboxylic acid] | 9.30 | 5.56 | –
CCOc1cc(C(=O)Nc2cc(C(F)(F)F)ccn2)ccc1-c1nc([C@@H]2C[C@@H]3[C@H](C2)[C@H]3C(=O)O)n2ccnc(N)c12 [Example 135, (1R,3R,5S,6r)-3-[8-amino-1-(2-ethoxy-4-{[4-(trifluoromethyl)pyridin-2-yl]carbamoyl}phenyl)imidazo[1,5-a]pyrazin-3-yl]bicyclo[3.1.0] hexane-6-carboxylic acid] | 9.37 | 5.17 | –
C[C@@]1(C(=O)O)CC[C@@](C)(c2nc(-c3ccc(C(=O)Nc4cc(C(F)(F)F)ccn4)cc3F)c3c(N)nccn23)C1 [Example 136, (1R,3R)-3-[8-amino-1-(2-fluoro-4-{[4-(trifluoromethyl)pyridin-2-yl]carbamoyl}phenyl)imidazo[1,5-a]pyrazin-3-yl]-1,3-dimethylcyclopentane carboxylic acid] | 9.77 | 5.47 | –
C[C@@]1(C(=O)O)CCC[C@@](C)(c2nc(-c3ccc(C(=O)Nc4cc(C(F)(F)F)ccn4)cc3)c3c(N)nccn23)C1 [Example 137, (1R,3R)-3-[8-amino-1-(4-{[4-(trifluoromethyl)pyridin-2-yl]carbamoyl}phenyl)imidazo[1,5-a]pyrazin-3-yl]-1,3-dimethylcyclohexane-carboxylic acid] | 9.05 | 5.44 | –
C[C@@]1(C(=O)O)CCC[C@@](C)(c2nc(-c3ccc(C(=O)Nc4cc(C(F)(F)F)ccn4)cc3)c3c(N)nccn23)C1 [Example 138, (1R,3R)-3-[8-amino-1-(4-{[4-(trifluoromethyl)pyridin-2-yl]carbamoyl}phenyl)imidazo[1,5-a]pyrazin-3-yl]-1,3-dimethylcyclohexane-carboxylic acid] | 9.47 | – | 5.22
CC1(C)[C@H](C(=O)O)CC[C@]1(C)c1nc(-c2ccc(C(=O)Nc3cc(C(F)(F)F)ccn3)cc2)c2c(N)nccn12 [Example 141, (1R,3S)-3-[8-amino-1-(4-{[4-(trifluoromethyl)pyridin-2-yl]carbamoyl}phenyl)imidazo[1,5-a]pyrazin-3-yl]-2,2,3-trimethylcyclopentane carboxylic acid] | 8.28 | 5.53 | –
CC1(C)[C@@H](C(=O)O)CC[C@@]1(C)c1nc(-c2ccc(C(=O)Nc3cc(C(F)(F)F)ccn3)cc2)c2c(N)nccn12 [Example 142, (1S,3R)-3-[8-amino-1-(4-{[4-(trifluoromethyl)pyridin-2-yl]carbamoyl}phenyl)imidazo[1,5-a]pyrazin-3-yl]-2,2,3-trimethylcyclopentane carboxylic acid] | 8.92 | 5.36 | –
CC(C)C1(C(=O)O)CCC(C)(c2nc(-c3ccc(C(=O)Nc4cc(C(F)(F)F)ccn4)cc3)c3c(N)nccn23)C1 (centres unmarked) [Example 143, 3-[8-amino-1-(4-{[4-(trifluoromethyl)pyridin-2-yl]carbamoyl}phenyl)imidazo[1,5-a]pyrazin-3-yl]-3-methyl-1-(1-methylethyl)cyclopentane-carboxylic acid] | 9.14 | – | 5.40
CC(C)C1(C(=O)O)CCC(C)(c2nc(-c3ccc(C(=O)Nc4cc(C(F)(F)F)ccn4)cc3)c3c(N)nccn23)C1 (centres unmarked) [Example 144, 3-[8-amino-1-(4-{[4-(trifluoromethyl)pyridin-2-yl]carbamoyl}phenyl)imidazo[1,5-a]pyrazin-3-yl]-3-methyl-1-(1-methylethyl) cyclopentane-carboxylic acid] | 8.60 | – | 5.52
